Source: patent US11414416B1, “Compounds and uses thereof” (Foghorn Therapeutics Inc., priority 2019, dated 2022)

The compounds below were run against Nanoluciferase-BRD9 fusion protein (Homo sapiens (Human), UniProt Q9H8M2) (assay: SYO1 BRD9 NanoLuc degradation assay). Settings: Table 5A; SYO-1 cells expressing 3×FLAG-NLuc-BRD9, 6 hours.
Assay type: cell-based
Procedure: Procedure: A stable SYO-1 cell line expressing 3×FLAG-NLuc-BRD9 was generated. On day 0 cells were seeded in 30 μL media into each well of 384-well cell culture plates. The seeding density was 8000 cells/well. […] Subsequently plates were incubated for 6 hours in a standard tissue culture incubator and equilibrated at room temperature for 15 minutes. Nanoluciferase activity was measured by adding 15 μL of freshly prepared Nano-Glo Luciferase Assay Reagent (Promega N1130), shaking the plates for 10 minutes and reading the bioluminescence using an EnVision reader.
DMSO treated cells are employed as High Control (HC) and 1 μM of a known BRD9 degrader standard treated cells are employed as Low Control (LC).

Chain of Nanoluciferase-BRD9 fusion protein (Q9H8M2 whole entry, the tested form may be a part): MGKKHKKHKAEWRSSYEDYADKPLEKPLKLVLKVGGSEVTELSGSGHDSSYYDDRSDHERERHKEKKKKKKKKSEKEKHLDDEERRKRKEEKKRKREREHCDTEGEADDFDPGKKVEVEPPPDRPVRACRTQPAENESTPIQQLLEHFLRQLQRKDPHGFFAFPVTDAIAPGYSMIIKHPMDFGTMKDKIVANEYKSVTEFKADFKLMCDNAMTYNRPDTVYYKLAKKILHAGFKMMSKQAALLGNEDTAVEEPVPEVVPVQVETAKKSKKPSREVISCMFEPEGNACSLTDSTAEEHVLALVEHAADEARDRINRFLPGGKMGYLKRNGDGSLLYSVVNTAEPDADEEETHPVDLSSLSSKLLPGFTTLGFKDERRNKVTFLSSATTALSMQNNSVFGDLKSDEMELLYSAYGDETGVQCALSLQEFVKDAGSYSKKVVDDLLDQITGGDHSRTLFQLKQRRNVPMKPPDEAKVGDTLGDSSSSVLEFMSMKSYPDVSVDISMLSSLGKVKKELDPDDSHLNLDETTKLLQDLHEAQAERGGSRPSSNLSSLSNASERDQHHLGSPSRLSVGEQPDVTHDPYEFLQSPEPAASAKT

Row | IC50 | SMILES
1 | 10 to 100 nM | COc1cc(-c2cn(C)c(=O)c3cnccc23)cc(OC)c1CN1CC2(CCN(C(=O)CCOCCOc3cccc4c3C(=O)N(C3CCC(=O)NC3=O)C4=O)C2)C1 (centres unmarked) [Compound D90]

Same assay, conditions: Table 5A; SYO-1 cells expressing 3×FLAG-NLuc-BRD9, 6 hours; read-out: SYO1 BRD9-NanoLuc degradation IC50

Row | DC50 | SMILES
2 | 100 to 1000 nM | COc1cc(-c2cn(C)c(=O)c3cnccc23)cc(OC)c1CN1CC(CC(=O)N2CC3(CCN(c4ccc5c(c4)C(=O)N(C4CCC(=O)NC4=O)C5=O)C3)C2)C1 (centres unmarked) [Compound D77]
3 | 10 to 100 nM | COc1cc(-c2cn(C)c(=O)c3cnccc23)cc(OC)c1CN1CC(CC(=O)NC2CC3(C2)CC(Oc2ccc4c(c2)C(=O)N(C2CCC(=O)NC2=O)C4=O)C3)C1 (centres unmarked) [Compound D78]
4 | 100 to 1000 nM | COc1cc(-c2cn(C)c(=O)c3cnccc23)cc(OC)c1CN1CC(CC(=O)N2CC3(CCC(Oc4ccc5c(c4)C(=O)N(C4CCC(=O)NC4=O)C5=O)C3)C2)C1 (centres unmarked) [Compound D79]
5 | < 10 nM | COc1cc(-c2cn(C)c(=O)c3cnccc23)cc(OC)c1CN1CC(CC(=O)N2CCC3(CC2)CC(Oc2ccc4c(c2)C(=O)N(C2CCC(=O)NC2=O)C4=O)C3)C1 (centres unmarked) [Compound D80]
6 | < 10 nM | COc1cc(-c2cn(C)c(=O)c3cnccc23)cc(OC)c1CN1CC2(C1)CN(C(=O)C#Cc1ccc3c(c1)C(=O)N(C1CCC(=O)NC1=O)C3=O)C2 (centres unmarked) [Compound D81]
7 | 10 to 100 nM | COc1cc(-c2cn(C)c(=O)c3cnccc23)cc(OC)c1CN1CCC2(CC1)CC(NC(=O)CCOCCOc1cccc3c1C(=O)N(C1CCC(=O)NC1=O)C3=O)C2 (centres unmarked) [Compound D82]
8 | 100 to 1000 nM | COc1cc(-c2cn(C)c(=O)c3cnccc23)cc(OC)c1CN1CC(CCNC(=O)CCOCCOc2cccc3c2C(=O)N(C2CCC(=O)NC2=O)C3=O)C1 (centres unmarked) [Compound D83]

Same assay, conditions: Table 5B; SYO-1 cells expressing 3×FLAG-NLuc-BRD9, 6 hours; read-out: SYO1 BRD9-NanoLuc degradation IC50

Row | DC50 | SMILES
9 | < 10 nM | COc1cc(-c2cn(C)c(=O)c3cnccc23)cc(OC)c1CN1CC(CC(=O)N2CCC3(CC2)CN(c2ccc4c(c2)C(=O)N(C2CCC(=O)NC2=O)C4=O)C3)C1 (centres unmarked) [Compound D180]
10 | 100 to 1000 nM | COc1cc(-c2cn(C)c(=O)c3cnccc23)cc(OC)c1CN1CC(CC(=O)N2CC3(CCN(c4ccc5c(c4)C(=O)N(C4CCC(=O)NC4=O)C5=O)C3)C2)C1 (centres unmarked) [Compound D181]
11 | 10 to 100 nM | COc1cc(-c2cn(C)c(=O)c3cnccc23)cc(OC)c1CN1CC(CC(=O)NC2CC3(C2)CC(Oc2ccc4c(c2)C(=O)N(C2CCC(=O)NC2=O)C4=O)C3)C1 (centres unmarked) [Compound D182]
12 | 100 to 1000 nM | COc1cc(-c2cn(C)c(=O)c3cnccc23)cc(OC)c1CN1CC(CC(=O)N2CC3(CCC(Oc4ccc5c(c4)C(=O)N(C4CCC(=O)NC4=O)C5=O)C3)C2)C1 (centres unmarked) [Compound D183]
13 | < 10 nM | COc1cc(-c2cn(C)c(=O)c3cnccc23)cc(OC)c1CN1CC(CC(=O)N2CCC3(CC2)CC(Oc2ccc4c(c2)C(=O)N(C2CCC(=O)NC2=O)C4=O)C3)C1 (centres unmarked) [Compound D184]
14 | < 10 nM | COc1cc(-c2cn(C)c(=O)c3cnccc23)cc(OC)c1CN1CC2(C1)CN(C(=O)C#Cc1ccc3c(c1)C(=O)N(C1CCC(=O)NC1=O)C3=O)C2 (centres unmarked) [Compound D185]
15 | < 10 nM | COc1cc(-c2cn(C)c(=O)c3cnccc23)cc(OC)c1CN(C)C(=O)CCCCN1CCC2(CC1)CN(c1ccc3c(c1)C(=O)N(C1CCC(=O)NC1=O)C3=O)C2 (centres unmarked) [Compound D186]
16 | < 10 nM | COc1cc(-c2cn(C)c(=O)c3cnccc23)cc(OC)c1CN(C)C(=O)CCCCN1CC2(CCN(c3ccc4c(c3)C(=O)N(C3CCC(=O)NC3=O)C4=O)C2)C1 (centres unmarked) [Compound D187]
17 | < 10 nM | COc1cc(-c2cn(C)c(=O)c3cnccc23)cc(OC)c1CN(C)C(=O)CCCCN1CCC2(CCN(c3ccc4c(c3)C(=O)N(C3CCC(=O)NC3=O)C4=O)C2)C1 (centres unmarked) [Compound D188]
18 | < 10 nM | COc1cc(-c2cn(C)c(=O)c3cnccc23)cc(OC)c1CN1CC(CC(=O)NC2CC3(CCN(c4ccc5c(c4)C(=O)N(C4CCC(=O)NC4=O)C5=O)CC3)C2)C1 (centres unmarked) [Compound D189]

Row | SMILES | DC50
19 | COc1cc(-c2cn(C)c(=O)c3cnccc23)cc(OC)c1CN(C)C1CCN(CCOc2ccc3c(c2)C(=O)N(C2CCC(=O)NC2=O)C3=O)CC1 (centres unmarked) [Compound D178] | < 10 nM
20 | COc1cc(-c2cn(C)c(=O)c3cnccc23)cc(OC)c1CN1CC(S(=O)(=O)NCCN2CCN(c3ccc4c(c3)C(=O)N(C3CCC(=O)NC3=O)C4=O)CC2)C1 (centres unmarked) [Compound D179] | 10 to 100 nM
